# Reference: patent US20080299123A1, “TREATMENT OF CHEMOTHERAPY- OR RADIOTHERAPY-RESISTANT TUMORS” (Deutsches Krebsforschungszentrum Stiftung des offentlichen …, priority 2006, published 2008)
# Assays:
# Assay type in all cases: cell-based, human
# ERK phosphorylation = ERK phosphorylation in SKOV3ip cells; conditions: treatment with DAPT, TAPI-0
# Protocol: (§1) (A) Analysis of L1-32 cleavage by γ-secretase. Cells were treated for 48 h at 37° C. with presenilin inhibitor IX (DAPT) or for control with DMSO. Isolated membranes were incubated for 2 h at 37° C. and then separated into pellet or supernatant (SN) fractions by ultracentrifugation. Lanes 1 to 2 show cells treated with DMSO (vehicle). Lanes 3 and 4 show cells preincubated with DAPT. (B) SKOV3ip cells were treated with DAPT either in the presence or absence of the metalloprotease inhibitor TAPI-0 for 24 hr. Cells were lysed in BOG lysis buffer and analyzed by Western blot analysis. The cell supernatant was analyzed for soluble L1 using mAb L1-11A and the cell lysate was examined for L1-32 using peytL1. (C) HEK293 or HEK293-hL1wt cells were treated with DMSO, DAPT, TAPI-0 or both inhibitors for 96 h. mRNA was transcribed to cDNA and analyzed by qPCR for the genes CRABPII and cathepsin B. (D) Analysis of ERK phosphorylation in SKOV3ip cells after treatment with the indicated compounds.
# (A) Effect of L1-antibodies on ERK phosphorylation in SKOV3ip cells. The cells were incubated for 24 hr at 37° C. with the indicated purified antibodies to L1 (10 μg/ml) or isotype control IgG. […] Soluble L1 in the supernant and L1-32 in the cell lysate were analyzed by Western blot. (C) mRNA was isolated from antibody treated SKOV3ip cells, transcribed to cDNA and analyzed by qPCR for the indicated genes. […]
# [1] = test system: cathepsin B and CRABPII transcription; assay: L1-dependent gene regulation by qPCR in HEK293-hL1wt cells; conditions: preincubation 96 h
# Protocol: as §1
# We next investigated whether L1-mediated gene regulation was dependent on L1-processing, by carrying out inhibition experiments. […]
# mRNA was isolated using the Quiagen RNAeasy mini kit (Quiagen Hilden, Germany). […] After exposing of the hybridized membranes, the PhosphorImager screens were scanned (Fuji FLA-3000, 100 μm resolution, Fuji BAS-reader software). […]
# L1CAM = L1CAM cleavage by western blotting in L1CAM transfected PT45-P1 cells; conditions: inhibitor 10 μmol/L, 24 hours
# Protocol: PT45-P1res cells (a,b) or PT45-P1 cells transfected with L1CAM or an empty control vector (mock) (c,d) were left untreated (w/o) or were either treated with Tapi-0, Tapi-1, GM6001 or L685,458 (each 10 μmol/L) for 24 hours. (a,c) Cellular lysates were subjected to western blotting using either the antibody clone UJ127 from Acris detecting only full-length L1CAM or the pcytL1 antibody detecting also the cytoplasmic part of L1CAM. HSP90 was detected as a control for equal protein load. (b,d) Thirty minutes after treatment with the respective inhibitor, cells were either left untreated or treated with 20 μg/mL etoposide for 24 hours. Then, cells were analysed for caspase-3/-7 activity expressed as n-fold induction of caspase-3/-7 activity of basal. Means±SD from three independent experiments are shown. * indicates p<0.05.
# Cells were seeded into 6 well and 12 well plates, respectively, and transfected or treated as indicated. Then, cells were washed once with PBS and lysed with 1 volume of 2×SDS sample buffer (128 mmol/L Tris-Base, 4.6% SDS, 10% glycerol). Samples were heated for 5 minutes at 95° C. and put on ice for 2 minutes. Protein concentrations were determined using the Dc Protein assay (BioRad). Ten μg of protein adjusted to an appropriate volume of SDS sample buffer containing 0.2 mg/mL bromphenolblue (Serva, Heidelberg, Germany) and 2.5% β-mercaptoethanol (Biomol, Hamburg, Germany) were submitted to electrophoresis on a 4-20% ProGel-Tris-glycin-gel (Anamed, Darmstadt, Germany) and immunoblotting was performed as described previously (Arlt et al, 2001). For detection of L1CAM, a monoclonal antibody (clone UJ127 from Acris Antibodies) was diluted at a concentration of 0.4 μg/mL in 5% nonfat milk powder and 0.05% Tween in TBS (blotto) and incubated overnight at 4° C. For detection of the cytoplasmic domain of L1CAM, the pcytL1 antibody (Mechtersheimer et al., 2001) was used at a concentration of 1 μg/mL in blotto and incubated overnight at 4° C. As control of equal protein load, a polyclonal rabbit antibody for HSP90 (Santa Cruz, Heidelberg, Germany) was diluted 1:2000 in blotto. The mouse anti CD51 antibody from Beckman Coulter GmbH (Krefeld, Germany) was used at a concentration of 1:500 in blotto for detection of human αv integrin. Incubation with the primary antibodies was performed overnight at 4° C. For detection of the primary antibodies, anti-mouse and anti-rabbit HRP-linked antibodies (Cell Signaling), respectively, were used at a dilution of 1:2000 in blotto-TBST at room temperature for 1 hour. After washing in TBST, blots were developed using the LumiGlo peroxidase detection kit (Cell Signaling).
smiles,measurement,setting,value
CC(C)C[C@H](CC(=O)NO)C(=O)N[C@@H](Cc1ccc2ccccc2c1)C(=O)N[C@@H](C)C(N)=O [TAPI-0],ERK activation in treated cells,ERK phosphorylation,did not interfere with ERK activation
same,L1-dependent regulation of transcription for cathepsin B and CRABPII,[1],blocked
same,expression of full-length L1CAM and level of the 32 kD fragment,L1CAM,did neither influence the expression of full-length L1CAM nor increased the level of the 32 kD fragment
